# From ChEMBL document CHEMBL5137028, “Progress and Challenges in Targeting the SARS-CoV-2 Papain-like Protease” (J Med Chem, 2022)
# pEC50: −log10 of the molar value.
# Test system: SARS-CoV-2
# Experiment: Antiviral activity against SARS-CoV-2 nCoV-2019BetaCoV/Wuhan/WIV04/2019 infected in African green monkey Vero E6 cells assessed as viral growth inhibition pretreated for 1 hr followed by infection at MOI of 0.01 and replacement of fresh medium containing compound measured after 24 hrs by plaque reduction assay
# Assay type: functional, organism-based
# Conditions: Severe acute respiratory syndrome coronavirus 2, nCoV-2019BetaCoV/Wuhan/WIV04/2019, Vero C1008
row,Compound,pEC50
1,COCC[n+]1c2c(n(Cc3cnccn3)c1C)C(=O)c1ccccc1C2=O [SEPANTRONIUM BROMIDE],6.77
2,Cc1coc2c1C(=O)C(=O)c1c-2ccc2c(C)cccc12 [TANSHINONE I],5.65
3,C[C@H]1COC2=C1C(=O)C(=O)c1c2ccc2c1CCCC2(C)C [CRYPTOTANSHINONE],6.15
